Laboratory results from US8142764B2, “Synthetic biofilm-inhibiting peptides” (priority 2008, dated 2012).
“Also recorded” adds a separate entry of the source. Where no end group is shown, it is not given here.

Columns and labels:
[1] = tested on: proteolytic activity of P. gingivalis; assay type: cell-based, Porphyromonas gingivalis; conditions: intact cells pre-treated with inhibitor
Source text: Inhibition of protease activity. The proteolytic activity of P. gingivalis was inhibited using a bacterial protease inhibitor cocktail (Sigma, St. Louis, Mo.) containing the following inhibitors: 4-(2-Aminoethyl)benzenesulfonyl fluoride hydrochloride (AEBSF), N-(trans-epoxysuccinyl)-L-leucine 4 guanidinobutylamide (E-64), sodium ethylenediaminetetra-acetate (EDTA), bestatin and pepstatin A. The inhibitor cocktail was suspended in dimethylsulfoxide (DMSO) (Sigma, St. Louis, Mo.) at the concentration recommended by the manufacturer.

[2] = tested on: P. gingivalis/S. gordonii biofilm; assay: Inhibition of P. gingivalis adherence and biofilm formation on S. gordonii (open flow cell, confocal microcolony count); assay type: cell-based, Porphyromonas gingivalis; conditions: for inhibition of biofilm formation: peptide 3.38 μM
Description: P. gingivalis adherence and biofilm formation. The adherence of intact P. gingivalis to S. gordonii cells and the subsequent formation of biofilms was carried out using an open flow system essentially as previously described by Amorin Daep et al. Infect Immun 74:5756-62 (2006) and Lamont et al. Microbiology 148:1627-36 (2002). The flow reactor comprised a Manostat Carter 4/8 cassette peristaltic pump (Fisher Scientific, Suwanee, Ga.) using 0.89 millimeter platinum-cured silicone tubing (Fisher Scientific, Suwanee, Ga.) and a BST FC 71 flow cell (Biosurface Technologies, Corp, Bozeman, Mont.). A single surface of a 15×40 mm cover glass (Fisher Scientific, Suwanee, Ga.) was coated with 0.22 μm filter sterilized saliva and incubated at 37° C. for 30 minutes. The saliva coated coverglass was then washed with sterile 1×PBS at a flow rate of 6 ml per hour for 30 minutes to remove unbound salivary constituents.
S. gordonii DL-1 cells were harvested by centrifugation at 4000 rpm at 4° C. for 15 minutes and suspended in 25 ml of sterile 1×PBS. S. gordonii cells were labeled with 20 μl of hexidium iodide (1.6 mg/ml, Molecular Probes, Eugene, Oreg.) at 25° C. for 30 minutes in the dark and washed with PBS. Adherence of streptococci to the saliva coated cover glass was carried out by delivering S. gordonii cells to the flow chamber at a flow rate of 6 ml per hour for approximately 2 hours. Following inoculation with S. gordonii, the flow cell was washed with sterile 1×PBS for 30 minutes at 6 ml per hour to remove non-adherent bacteria from the cover glass.
P. gingivalis ATCC 33277 cells were harvested by centrifugation at 4000 rpm at 4° C. for 45 minutes, suspended in 25 ml of sterile 1×PBS, and introduced into the flow cell at a flow rate of 6 ml per hour for 2 hours at 25° C. to allow P. gingivalis to adhere and accumulate on the streptococcal substrate. Flow cells were subsequently washed with sterile 1×PBS to remove non-adherent P. gingivalis cells. To visualize adherent P. gingivalis, rabbit anti-P. gingivalis 33277 polyclonal antibody diluted 3:5000 in 5 ml of sterile 1×PBS was flowed into the cell at a rate of 6 ml per hour. The flow cell was then washed with sterile 1×PBS for 1 hour, reacted with anti-rabbit IgG fluorescein isothiocyanate (FITC) conjugate (Sigma, St. Louis, Mo.) in sterile 1×PBS (1:5000) for 1 hour at 6 ml per hour, and received a final wash with sterile 1×PBS as above. Under these conditions, the streptococci bound to the saliva coated coverglass as a non-confluent layer comprising single cells and small aggregates. P. gingivalis subsequently adhered to and formed distinct microcolonies on the immobilized streptococci. The microcolonies were visualized and quantified by confocal microscopy as described below.
Confocal microscopy and analysis of P. gingivalis biofilms. P. gingivalis-S. gordonii biofilms were visualized using an Olympus FluoView 500 confocal laser scanning microscope (Olympus, Pittsburgh, Pa.) under 600× magnification using an Argon laser for visualization of FITC labeling and the HeNe-G laser to visualize hexidium iodide labeled streptococci. The number and depth of FITC-labeled P. gingivalis microcolonies was determined from 30 to 60 randomly chosen frames using the FluoView software package provided by Olympus. Microcolony depth was determined by performing Z-plane scans from 0 μm to 30 μm above the coverglass surface. P. gingivalis microcolonies that formed on S. gordonii in the absence of peptide inhibitor ranged from 7 to 16 μm in depth under the experimental conditions used.
Inhibition of P. gingivalis adherence and bioflim formation. […] The P. gingivalis-peptide suspension was then introduced into the flow cell for 2 hours at a flow rate of 6 ml per hour as described above and P. gingivalis microcolonies were analyzed by confocal microscopy. Data was analyzed using GraphPad InStat3 (GraphPad Software Co.).

[3] = tested on: P. gingivalis/S. gordonii biofilm; conditions: 0.3 μM
Description: P. gingivalis biofilm formation with S. gordonii. The formation of dual species P. gingivalis/S. gordonii biofilms was carried out essentially as previously described by Lamont et al (2002. Microbiology 148:1627-36.) and Daep et al. (Immun 74:5756-62 (2006); Infect Immun 76:3273-80 (2008)). The bacterial biofilms were cultured using a Manostat Carter 4/8 cassette peristaltic pump (Fisher Scientific, Suwanee, Ga.) with 0.89 millimeter platinum-cured silicone tubing (Fisher Scientific, Suwanee, Ga.) and BST FC 71 flow cells (Biosurface Technologies, Corp, Bozeman, Mont.). […]
P. gingivalis cells were harvested by centrifugation at 4000 rpm at 4° C. for 45 minutes, suspended in 20 ml of sterile 1×PBS, and introduced into the flow cell at a flow rate of 6 ml per hour for 2 hours to allow the bacteria to adhere and accumulate on the streptococcal substrate. […] P. gingivalis microcolonies bound to immobilized streptococci were quantified by confocal microscopy as described below.
The bacteria were incubated with 0 and 0.845 μM peptide at ambient temperature for 30 minutes and introduced into the flow cell containing an existing streptococcal substrate for 2 hours at a flow rate of 6 ml per hour. Biofilm formation was analyzed by confocal microscopy as described below. Data was analyzed using GraphPad InStat3 software (GraphPad Software Co.) using a non-parametric analysis of variance (ANOVA). […]

[4] = tested on: proteases produced by P. gingivalis; assay: Proteolytic degradation of BAR by P. gingivalis cells, culture supernatant or extracts (tricine gel, densitometry); assay type: in vitro ADME, Porphyromonas gingivalis
Description: Proteolytic degradation of BAR by P. gingivalis. One milliliter of mid-exponential phase cultures of P. gingivalis SMF, P. gingivalis KDP128, P. gingivalis KDP129, or P. gingivalis E8 was centrifuged at 8000 rpm for 5 minutes at 4° C. The bacterial pellet was washed 3 times with 1 ml of sterile 1×PBS (100 mM sodium phosphate, pH 7.4, 150 mM NaCl). […] For some experiments, digital images of the stained gels were obtained using Epson Stylus CX3810 flatbed scanner (Espson America, Inc., Long Beach, Calif.) and analyzed by densitometry using ImageJ software (found on the world-wide-web at rsbweb.nih.gov/ij/).

[5] = biological target: Mfa1 (Porphyromonas gingivalis, UniProt B2RHG1); conditions: read-out: dissociation constant of the BAR-Mfa1 interaction; previously calculated; cited from earlier work
Mfa1, sequence (B2RHG1 50-563): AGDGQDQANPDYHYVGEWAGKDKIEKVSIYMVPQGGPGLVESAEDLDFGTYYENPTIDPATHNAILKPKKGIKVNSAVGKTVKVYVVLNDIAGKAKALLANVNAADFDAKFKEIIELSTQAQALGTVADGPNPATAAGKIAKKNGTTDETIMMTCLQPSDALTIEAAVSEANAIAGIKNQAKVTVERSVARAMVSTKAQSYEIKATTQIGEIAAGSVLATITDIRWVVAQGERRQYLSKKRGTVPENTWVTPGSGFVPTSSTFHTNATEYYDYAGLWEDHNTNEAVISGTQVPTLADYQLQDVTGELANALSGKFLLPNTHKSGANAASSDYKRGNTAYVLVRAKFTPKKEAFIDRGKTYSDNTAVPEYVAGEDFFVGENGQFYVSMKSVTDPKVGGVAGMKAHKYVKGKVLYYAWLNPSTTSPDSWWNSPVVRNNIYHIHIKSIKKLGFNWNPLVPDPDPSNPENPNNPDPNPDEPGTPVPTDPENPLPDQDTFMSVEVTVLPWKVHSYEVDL

[6] = Circular dichroism (CD) spectroscopy, K2D secondary structure estimate; assay type: physicochemical; conditions: 1.4 mM peptide in phosphate buffer
Description: Circular dichroism (CD) spectroscopy. CD experiments were carried out at 25° C. using Jasco J-810 spectropolarimeter (Jasco, Easton, Md.). A 40 μl sample of peptide at a concentration of 1.4 mM in filter sterilized 0.1 M phosphate buffer (pH=7.2) was analyzed in a 0.01 cm quartz cuvette (Starna Cells, Inc., Atascadero, Calif.) using the following parameters: sensitivity=100 mdeg, start wavelength=340 nm, end wavelength=180 nm, continuous scanning mode at 200 nm/minute, response=1 second, and bandwidth=1 nm. Nitrogen was flushed into the system at a rate of […] during each experiment. A total of 10 scans were accumulated and averaged and the appropriate blanks were subtracted from the spectra. The resulting spectra were expressed in molar ellipticity. Normalized CD data were analyzed using K2D software (on the world-wide web at embl-heidelberg.de/˜andrade/k2d.html)) to estimate α-helical, β-sheet, and random coil content.

O=C([O-])CN(CCN(CC(=O)[O-])CC(=O)[O-])CC(=O)[O-].[Na+].[Na+].[Na+].[Na+] [EDTA, sodium ethylenediaminetetra-acetate]
concentrations that prevent cleavage of BAR by P. gingivalis (in words) [1]: mM range

Cl.NCCc1ccc(S(=O)(=O)F)cc1 [AEBSF, 4-(2-Aminoethyl)benzenesulfonyl fluoride hydrochloride]
concentrations that prevent cleavage of BAR by P. gingivalis (in words) [1]: mM range

CC(C)C[C@H](NC(=O)[C@@H](O)[C@H](N)Cc1ccccc1)C(=O)O [bestatin]
concentrations that prevent cleavage of BAR by P. gingivalis (in words) [1]: mM range

LEAAPKKVPGLLKKANITVKGAFQLFS [BAR-X]
inhibition of biofilm formation [2]: ~15%

LQAAPKKVQDLLKKANITVKGAFQLFS [BAR-XIV]
inhibitory activity compared to BAR (in words) ([2]; peptide 1.7 μM): significant decrease in inhibitory activity
restoration of inhibitory activity (in words) ([2]; peptide 17 μM): did not show partial or full restoration

LEAAPKKVQDLLKKANITVKGAFQLFS [BAR]
inhibitory activity on biofilm formation [3]: ~50%
inhibition of P. gingivalis microcolony formation ([2]; peptide 0.34 μM): 3%
inhibition of P. gingivalis microcolony formation ([2]; peptide 0.85 μM): 7%
inhibition rate of P. gingivalis/S. gordonii biofilm formation ([2]; peptide 1.7 μM): 80%
inhibition of biofilm formation [2]: ~75%
degradation by P. gingivalis 33277 (in words) ([4]; 5 μg BAR, wild type cells): immediate degradation
degradation by P. gingivalis culture supernatant (in words) ([4]; 5 μg peptide, 37° C., 0 to 60 minutes): more slowly degraded; also recorded: time dependent degradation
proteolytic cleavage by P. gingivalis culture extracts (in words) ([4]; 1 hour incubation, 10-20% Tris-Tricine gel): slowly degraded
relative density (R.D.) of remaining BAR peptide ([4]; E8 whole cells, within 5 minutes (first value of 'R.D.=32.5 vs. 21.6')): 32.5
relative density (R.D.) of remaining BAR peptide ([4]; P. gingivalis SMF1 with rMfa1, T=5 minutes, loading control R.D.=61.07): 47.3
relative density (R.D.) of remaining BAR peptide ([4]; P. gingivalis SMF1 with rMfa1, T=30 minutes, loading control R.D.=61.07): 8.2
relative density (R.D.) of remaining BAR peptide ([4]; P. gingivalis SMF1 without rMfa1, T=5 minutes, loading control R.D.=61.07): −5.75
relative density (R.D.) of remaining BAR peptide ([4]; P. gingivalis SMF1 without rMfa1, T=30 minutes, loading control R.D.=61.07): −20.32
relative density (R.D.) of remaining BAR peptide ([4]; gingipain deficient P. gingivalis KDP128, T=5 minutes, loading control R.D.=115.85): 96.23
relative density (R.D.) of remaining BAR peptide ([4]; gingipain deficient P. gingivalis KDP128, T=10 minutes, loading control R.D.=115.85): 115.85
degradation by P. gingivalis E8 (lacks Arg-X gingipains), in words ([4]; intact cells): rapidly degraded; also recorded: immediate degradation
degradation by P. gingivalis KDP128 (lacks Lys-X and Arg-X gingipains), in words ([4]; intact cells): Little degradation was observed after incubation for 10 minutes; also recorded: attenuated proteolytic activity against the peptide
degradation by P. gingivalis KDP129 (lacks Lys-X gingipains), in words ([4]; intact cells): attenuated degradation; also recorded: Little degradation was observed
degradation by intact P. gingivalis cells in the presence of purified Mfa1 (in words) ([4]; pre-incubation with Mfa1): little degradation occurred after 5 minutes; also recorded: protection from proteolytic degradation
relative density (R.D.) of remaining BAR peptide, comparator ([4]; second value of 'R.D.=32.5 vs. 21.6', apparently wild type 33277, 5 minutes): 21.6
Kd [5]: ~900 nM

CC(C)C[C@H](NC(=O)[C@H]1O[C@@H]1C(=O)O)C(=O)NCCCCN=C(N)N (relative stereo) [E-64, N-(trans-epoxysuccinyl)-L-leucine 4 guanidinobutylamide]
concentrations that prevent cleavage of BAR by P. gingivalis (in words) [1]: mM range

LEAAPKKVQDLLKKARITIKGAFQLFS [BAR-II]
biofilm inhibitory activity (in words) [2]: more potent inhibitor of P. gingivalis adherence and biofilm development than BAR
fold difference in I50 / potency relative to BAR ([2]; I50 0.52 μM versus 1.25 μM): approximately 2.5 fold
IC50 ([2]; P. gingivalis pre-incubated with peptide, streptococcal substrate, read-out: I50 for inhibition of P. gingivalis adherence and biofilm formation): 520 nM
inhibition of P. gingivalis microcolony formation ([2]; peptide 0.34 μM): 25%
inhibition of P. gingivalis microcolony formation ([2]; peptide 0.85 μM): 82%
α-helix content [6]: 28%
